Values after ≈ are worked out from the molar mass of the structure shown. Values belong to the compound of their own block, whether it stands above or below them.
What was measured:
GTPase KRas = GTPase KRas (Homo sapiens, UniProt P01116, G12C)
[1] = Hepatic extraction ratio in human hepatocytes at 10 uM incubated for 2 hrs by LC-MS analysis; type: ADME, cell-based, Hepatocyte; settings: read-out: ERH
[2] = Hepatic extraction ratio in human liver microsomes; type: ADME, Microsome; settings: read-out: ERH
[3] = Clearance in CD1 mouse at 3 mg/kg, iv; type: ADME, organism-based; settings: in vivo
[4] = Half life in CD1 mouse at 3 mg/kg, iv; type: ADME, organism-based; settings: in vivo
[5] = Volume of distribution at steady state in CD1 mouse at 3 mg/kg, iv; type: ADME, organism-based; settings: in vivo, read-out: Vdss
[6] = system: GTPase KRas (Homo sapiens), P01116 [G12C]; assay: In-vivo target engagement at KRAS G12C mutant in athymic nude-Foxn1nu mouse xenografted with human NCI-H358 cells assessed as KRAS G12C modification level in tumor lysate at 10 mg/kg, po dosed via gavage as single administration measured after 6 hrs by LC-MS analysis relative to control; type: functional, organism-based; settings: Neoplasm
GTPase KRas (Homo sapiens), P01116 [G12C], sequence (P01116 whole entry G12C): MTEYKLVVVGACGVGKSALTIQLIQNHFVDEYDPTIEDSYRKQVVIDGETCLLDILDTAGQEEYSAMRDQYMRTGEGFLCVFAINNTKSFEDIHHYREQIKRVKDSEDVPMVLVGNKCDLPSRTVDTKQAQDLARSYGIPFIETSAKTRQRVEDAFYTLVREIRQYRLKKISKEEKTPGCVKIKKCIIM

[7] = Cmax in CD1 mouse at 30 mg/kg, po; type: ADME, organism-based; design: dose 30 mg/kg, route oral; settings: in vivo
[8] = Tmax in CD1 mouse at 30 mg/kg, po; type: ADME, organism-based; settings: in vivo
[9] = AUC (infinity) in CD1 mouse at 30 mg/kg, po; type: ADME, organism-based; design: dose 30 mg/kg, time infinity, route oral; settings: in vivo
[10] = Oral bioavailability in CD1 mouse at 30 mg/kg; type: ADME, organism-based; settings: in vivo
[11] = system: GTPase KRas (Homo sapiens), P01116 [G12C]; assay: In-vivo target engagement at KRAS G12C mutant in athymic nude-Foxn1nu mouse xenografted with human NCI-H358 cells assessed as KRAS G12C modification level in tumor lysate at 30 mg/kg, po dosed via gavage as single administration measured after 6 hrs by LC-MS analysis relative to control; type: functional, organism-based; settings: Neoplasm
[12] = system: GTPase KRas (Homo sapiens), P01116 [G12C]; assay: In-vivo target engagement at KRAS G12C mutant in athymic nude-Foxn1nu mouse xenografted with human NCI-H358 cells assessed as KRAS G12C modification level in tumor lysate at 100 mg/kg, po dosed via gavage as single administration measured after 6 hrs by LC-MS analysis relative to contro; type: functional, organism-based; settings: Neoplasm
MIA PaCa-2 [13] = assay: Antitumor activity against human MIAPaCa2 cells xenografted in athymic nude-Foxn1nu mouse assessed as induction of tumor regression at 30 mg/kg, po dosed daily via gavage for 16 days; type: functional
MIA PaCa-2 [14] = assay: Antitumor activity against human MIAPaCa2 cells xenografted in athymic nude-Foxn1nu mouse assessed as induction of tumor regression at 30 mg/kg, po dosed daily via gavage for 16 days followed by drug cessation and measured up to 40 days; type: functional
[15] = Half life in beagle dog at 3 mg/kg, iv; type: ADME, organism-based, Canis lupus familiaris; settings: in vivo
[16] = Clearance in beagle dog at 3 mg/kg, iv; type: ADME, organism-based, Canis lupus familiaris; settings: in vivo
[17] = Volume of distribution at steady state in beagle dog at 3 mg/kg, iv; type: ADME, organism-based, Canis lupus familiaris; settings: in vivo, read-out: Vdss
[18] = Cmax in beagle dog at 10 mg/kg, po; type: ADME, organism-based, Canis lupus familiaris; design: dose 10 mg/kg, route oral; settings: in vivo
[19] = Tmax in beagle dog at 10 mg/kg, po; type: ADME, organism-based, Canis lupus familiaris; settings: in vivo
[20] = molecular target: Glutathione S-transferase P (Homo sapiens) (UniProt P09211); assay: Drug metabolism in human whole blood assessed as GSTP1-1-mediated GSH conjugation; type: tissue-based
Glutathione S-transferase P (Homo sapiens), sequence (P09211 2-210 limits assumed): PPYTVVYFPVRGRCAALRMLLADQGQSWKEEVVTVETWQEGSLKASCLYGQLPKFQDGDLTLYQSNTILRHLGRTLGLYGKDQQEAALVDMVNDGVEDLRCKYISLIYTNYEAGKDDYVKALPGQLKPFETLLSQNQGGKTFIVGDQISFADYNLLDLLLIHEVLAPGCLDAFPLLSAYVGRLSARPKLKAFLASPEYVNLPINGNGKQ

[21] = AUC (infinity) in beagle dog at 10 mg/kg, po; type: ADME, organism-based, Canis lupus familiaris; design: dose 10 mg/kg, time infinity, route oral; settings: in vivo
[22] = Oral bioavailability in beagle dog at 10 mg/kg; type: ADME, organism-based, Canis lupus familiaris; settings: in vivo
[23] = Half life in mouse whole blood at 5 uM by LC-MS/MS analysis; type: ADME, tissue-based
[24] = Half life in dog whole blood at 5 uM by LC-MS/MS analysis; type: ADME, tissue-based, Canis lupus familiaris
[25] = Half life in human whole blood at 5 uM by LC-MS/MS analysis; type: ADME, tissue-based
[26] = Half life in presence of GSH in phosphate buffer at 1 uM at 37 degC by LC-MS/M analysis; type: physicochemical; settings: phosphate buffer with GSH
[27] = Protein binding in mouse plasma; type: ADME, cell-free; settings: read-out: PPB (converted)
[28] = Solubility in FaSSIF at pH 6.5; type: physicochemical
[29] = Apparent permeability in pig LLC-PK1 cells; type: ADME, cell-based, Sus scrofa; settings: read-out: permeability
[30] = Permeability ratio in pig LLC-PK1 cells; type: ADME, cell-based, Sus scrofa
[31] = Protein binding in human plasma; type: ADME, cell-free; settings: read-out: PPB (converted)
[32] = system: GTPase KRas (Homo sapiens), P01116 [G12C]; assay: Inhibition of KRAS G12C mutant in human NCI-H358 cells assessed as reduction in ERK phosphorylation incubated for 3 hrs by in-cell western method
[33] = Cmax in CD1 mouse at 10 mg/kg, po; type: ADME, organism-based; design: dose 10 mg/kg, route oral; settings: in vivo
[34] = Tmax in CD1 mouse at 10 mg/kg, po; type: ADME, organism-based; settings: in vivo
[35] = AUC (infinity) in CD1 mouse at 10 mg/kg, po; type: ADME, organism-based; design: dose 10 mg/kg, route oral, time infinity; settings: in vivo
[36] = Oral bioavailability in CD1 mouse at 10 mg/kg; type: ADME, organism-based; settings: in vivo
[37] = Drug metabolism in mouse hepatocytes assessed as parent compound remaining at 10 uM incubated for 2 hrs by LC-MS analysis; type: ADME, cell-based, Hepatocyte; settings: read-out: Stability

GTPase KRas, sequence (P01116 whole entry G12C): as the sequence (P01116 whole entry G12C) above

Structure (SMILES): C=CC(=O)N1CCN(c2nc(OC[C@@H]3CCCN3C)nc3c2CCN(c2cccc4ccccc24)C3)CC1CC#N (stereo partly specified)
IC50 (GTPase KRas): 0.014 µM

Structure (SMILES): C=CC(=O)N1CCN(c2nc(OC[C@@H]3CCCN3C)nc3c2CCN(c2c(C(F)(F)F)ccc4[nH]ncc24)C3)CC1
hepatic extraction ratio at 2 h, 10 µM [1]: < 0.55
hepatic extraction ratio [2]: < 0.55
IC50 (GTPase KRas): 0.351 µM

Structure (SMILES): C=CC(=O)N1CCN(c2nc(OC[C@@H]3CCCN3C)nc3c2CCN(c2c(C)ccc4[nH]ncc24)C3)CC1
IC50 (GTPase KRas): 1.5 µM

Structure (SMILES): C=CC(=O)N1CCN(c2nc(OC[C@@H]3CCCN3C)nc3c2CCN(c2cccc4cccc(C)c24)C3)C[C@@H]1CC#N
clearance [3]: 1.9 L/h/kg
half-life [4]: 1.33 h
Vd [5]: 1.91 L/kg
Activity [6]: 20%
Cmax [7]: 1.66 µg/mL
Tmax [8]: 0.5 h
AUC(0-inf) [9]: 4.91 µg·h/mL
bioavailability [10]: 31.1%
Activity [11]: 60%
Activity [12]: 80%
Activity (MIA PaCa-2 [13]): 100%
Activity (MIA PaCa-2 [14]): 100%
half-life [15]: 0.966 h
clearance [16]: 9.06 L/h/kg
Vd [17]: 6.16 L/kg
Cmax [18]: 0.0178 µg/mL
Tmax [19]: 1.17 h
Drug metabolism [20]: Metabolite detected
AUC(0-inf) [21]: 0.0395 µg·h/mL
bioavailability [22]: 3.67%
IC50 (GTPase KRas): 0.001 µM

Structure (SMILES): CN1CCC[C@H]1COc1nc2c(c(N3CCN(C(=O)/C=C/CF)[C@@H](CC#N)C3)n1)CCN(c1cccc3cccc(Cl)c13)C2
half-life at 5 µM [23]: 11 h
half-life at 5 µM [24]: 9 h
half-life at 5 µM [25]: > 50 h
IC50 (GTPase KRas): 0.003 µM

Structure (SMILES): C=CC(=O)N1CCN(c2nc(OC[C@@H]3CCCN3C)nc3c2CCN(c2cccc4cccc(CC)c24)C3)C[C@@H]1CC#N
IC50 (GTPase KRas): 0.006 µM

Structure (SMILES): C=CC(=O)N1CCN(c2nc(OC[C@@H]3CCCN3C)nc3c2CCN(c2cccc4ccccc24)C3)C[C@H]1CC#N
half-life at 1 µM [26]: 1 h
IC50 (GTPase KRas): 1.02 µM

Structure (SMILES): C=CC(=O)N1CCN(c2nc(OC[C@@H]3CCCN3C)nc3c2CCN(c2c(C(C)C)ccc4[nH]ncc24)C3)CC1
IC50 (GTPase KRas): 1.18 µM

Structure (SMILES): C=CC(=O)N1CCN(c2nc(OC[C@@H]3CCCN3C)nc3c2CCN(c2cccc4cccc(C(F)(F)F)c24)C3)C[C@@H]1CC#N
IC50 (GTPase KRas): 0.004 µM

Structure (SMILES): C=CC(=O)N1CCN(c2nc(OC[C@@H]3CCCN3C)nc3c2CCN(c2cccc4ccccc24)C3)C(CC#N)C1 (stereo partly specified)
IC50 (GTPase KRas): 3.32 µM

Structure (SMILES): C=C(OC)C(=O)N1CCN(c2nc(OC[C@@H]3CCCN3C)nc3c2CCN(c2cccc4cccc(Cl)c24)C3)C[C@@H]1CC#N
half-life at 5 µM [23]: > 50 h
half-life at 5 µM [24]: > 50 h
half-life at 5 µM [25]: 40 h
IC50 (GTPase KRas): > 5 µM

Structure (SMILES): C=CC(=O)N1CCN(c2nc(OC[C@@H]3CCCN3C)nc3c2CCN(c2cccc4cccc(C#N)c24)C3)C[C@@H]1CC#N
IC50 (GTPase KRas): 0.064 µM

clearance [3]: 2.24 L/h/kg
half-life [4]: 0.496 h
Vd [5]: 0.867 L/kg
Activity [6]: 70%
Cmax [7]: 2.46 µg/mL
Tmax [8]: 0.25 h
AUC(0-inf) [9]: 2.27 µg·h/mL
bioavailability [10]: 16.9%
Activity [11]: 89%
Activity [12]: > 90%
half-life [15]: 0.826 h
clearance [16]: 13.5 L/h/kg
Vd [17]: 7.91 L/kg
Cmax [18]: 0.0163 µg/mL
Tmax [19]: 0.833 h
Drug metabolism [20]: Metabolite detected
AUC(0-inf) [21]: 0.0319 µg·h/mL
bioavailability [22]: 4.12%
half-life at 5 µM [23]: 5 h
half-life at 5 µM [24]: 2 h
half-life at 5 µM [25]: 14 h
Structure (SMILES): C=CC(=O)N1CCN(c2nc(OC[C@@H]3CCCN3C)nc3c2CCN(c2cccc4cccc(Cl)c24)C3)C[C@@H]1CC#N
Activity (MIA PaCa-2 [13]): 100%
Activity (MIA PaCa-2 [14]): 100%

Structure (SMILES): C=CC(=O)N1CCN(c2nc(OC[C@@H]3CCCN3C)nc3c2CCN(c2c(C)c(C)cc4[nH]ncc24)C3)CC1
hepatic extraction ratio at 2 h, 10 µM [1]: < 0.55
hepatic extraction ratio [2]: < 0.55
IC50 (GTPase KRas): 0.254 µM

Structure (SMILES): C=CC(=O)N1CCN(c2nc(OC[C@@H]3CCCN3C)nc3c2CCN(c2cccc4ccccc24)C3)C[C@@H]1CC#N
hepatic extraction ratio at 2 h, 10 µM [1]: 0.9
hepatic extraction ratio [2]: 0.45
half-life at 1 µM [26]: 4 h
fraction unbound [27]: 0.05
solubility [28]: 0.8 mg/mL (≈ 1450 µM)
Papp [29]: 22 nm/s
Ratio [30]: 28
fraction unbound [31]: 0.05
IC50 (GTPase KRas): 0.01 µM
fIC50 [32]: 200 nM

Structure (SMILES): C=CC(=O)N1CCN(c2nc(OC[C@@H]3CCCN3C)nc3c2CCN(c2cccc4ccccc24)C3)CC1CCO (stereo partly specified)
IC50 (GTPase KRas): > 5 µM

Structure (SMILES): C=CC(=O)N1CCN(c2nc(OC[C@@H]3CCCN3C)nc3c2CCN(c2cccc4ccccc24)C3)CC1
half-life [4]: 0.908 h
Vd [5]: 0.996 L/kg
Cmax [33]: 0.131 µg/mL
Tmax [34]: 0.5 h
AUC [35]: 0.302 µg·h/mL
F [36]: 13.9%
half-life at 1 µM [26]: 17 h
IC50 (GTPase KRas): 4.4 µM

Structure (SMILES): C=CC(=O)N1CCN(c2nc(OC[C@@H]3CCCN3C)nc3c2CCN(c2cccc4cccc(OC)c24)C3)C[C@@H]1CC#N
IC50 (GTPase KRas): 0.022 µM

Structure (SMILES): C=CC(=O)N1CCN(c2nc(OC[C@@H]3CCCN3C)nc3c2CCN(c2c(CC)ccc4[nH]ncc24)C3)CC1
IC50 (GTPase KRas): 1.08 µM

Structure (SMILES): COC/C=C/C(=O)N1CCN(c2nc(OC[C@@H]3CCCN3C)nc3c2CCN(c2cccc4cccc(Cl)c24)C3)C[C@@H]1CC#N
half-life at 5 µM [23]: 11 h
half-life at 5 µM [24]: 22 h
half-life at 5 µM [25]: > 50 h
IC50 (GTPase KRas): 0.009 µM

Structure (SMILES): C=CC(=O)N1CCN(c2nc(OC[C@@H]3CCCN3C)nc3c2CCN(c2cccc4ccccc24)C3)C(CCO)C1 (stereo partly specified)
IC50 (GTPase KRas): 4.84 µM

Structure (SMILES): C=CC(=O)N1CCN(c2nc(OC[C@@H]3CCCN3C)nc3c2CCN(c2cccc4ccccc24)C3)C(CO)C1 (stereo partly specified)
IC50 (GTPase KRas): 4.53 µM

Structure (SMILES): C=CC(=O)N1CCN(c2nc(OC[C@@H]3CCCN3C)nc3c2CCN(c2cccc4ccccc24)C3)CC1CO (stereo partly specified)
IC50 (GTPase KRas): 4.63 µM

remaining at 2 h, 10 µM [37]: 4%
Structure (SMILES): C=CC(=O)N1CCN(c2nc(OC[C@@H]3CCCN3C)nc3c2CCN(c2cc(O)cc4ccccc24)C3)CC1

Reference: ChEMBL document CHEMBL4610106, “Identification of the Clinical Development Candidate MRTX849, a Covalent KRASG12C Inhibitor for the Treatment of Cancer” (J Med Chem, 2020)
